Experimental data reported in ChEMBL document CHEMBL1154879, “Discovery of (thienopyrimidin-2-yl)aminopyrimidines as potent, selective, and orally available pan-PI3-kinase and dual pan-PI3-kinase/mTOR inhibitors for the treatment of cancer” (J Med Chem, 2010).
pIC50: −log10 of the molar value. The source made the active and inactive calls. No cut-off for these calls is given here.

Tests used:
[1] = Protein binding in mouse plasma; type: ADME, cell-free; settings: read-out: PPB (converted)
Aurora kinase A = target: T1, Aurora kinase A (Homo sapiens, UniProt O14965); assay: Inhibition of Aurora A kinase
T1 sequence (O14965 whole entry): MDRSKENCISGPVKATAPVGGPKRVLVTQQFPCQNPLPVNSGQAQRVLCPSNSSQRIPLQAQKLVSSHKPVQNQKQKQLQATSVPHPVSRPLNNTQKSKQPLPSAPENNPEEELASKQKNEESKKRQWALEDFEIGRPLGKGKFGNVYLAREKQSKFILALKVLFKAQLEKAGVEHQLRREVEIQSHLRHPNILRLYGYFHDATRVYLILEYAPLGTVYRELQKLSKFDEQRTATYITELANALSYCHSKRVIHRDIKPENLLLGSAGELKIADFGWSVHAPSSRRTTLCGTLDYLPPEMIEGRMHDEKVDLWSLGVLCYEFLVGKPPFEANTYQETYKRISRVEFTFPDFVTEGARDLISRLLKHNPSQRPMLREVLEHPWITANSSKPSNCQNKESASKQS

Mus musculus [2] = assay: Inhibition of PI3K/Akt/mTOR pathway signaling in PI3Kalpha mutant expressing human MCF7.1 cells xenografted nu/nu mouse assessed as inhibition of Pras40 Thr246 phosphorylation at 6.25 mg/kg, po qd for 21 days measured 1 hr after last administered dose on day 21 by ELISA; type: functional
Mus musculus [3] = assay: Inhibition of PI3K/Akt/mTOR pathway signaling in PI3Kalpha mutant expressing human MCF7.1 cells xenografted nu/nu mouse assessed as inhibition of Akt Ser473 phosphorylation at 12.5 mg/kg, po qd for 21 days measured 1 hr after last administered dose on day 21 by electrochemiluminescence assay; type: functional
[4] = AUC in nu/nu mouse at 5 mg/kg, po; type: ADME, organism-based; set-up: dose 5 mg/kg, route oral; settings: plasma
[5] = target: Phosphatidylinositol 4-phosphate 3-kinase C2 domain-containing subunit beta (Homo sapiens) (UniProt O00750); assay: Inhibition of PIK3C2beta at 1 uM
[6] = target: Mitogen-activated protein kinase kinase kinase 9 (Homo sapiens, UniProt P80192); assay: Inhibition of MLK1
[7] = target: Phosphatidylinositol 3-kinase catalytic subunit type 3 (Homo sapiens) (UniProt Q8NEB9); assay: Inhibition of VPS34 at 1 uM
Mus musculus [8] = assay: Inhibition of PI3K/Akt/mTOR pathway signaling in PI3Kalpha mutant expressing human MCF7.1 cells xenografted nu/nu mouse assessed as inhibition of Pras40 Thr246 phosphorylation at 25 mg/kg, po qd for 21 days measured 1 hr after last administered dose on day 21 by ELISA; type: functional
MCF7.1 = assay: Antitumor activity against human MCF7.1 cells expressing PI3Kalpha mutant xenografted in nu/nu mouse assessed as inhibition of tumor growth at 25 mg/kg, po qd for 21 days; type: functional, organism-based; set-up: dose 25 mg/kg
Mus musculus [9] = assay: Inhibition of PI3K/Akt/mTOR pathway signaling in PI3Kalpha mutant expressing human MCF7.1 cells xenografted nu/nu mouse assessed as inhibition of S6RP Ser235/236 phosphorylation at 12.5 mg/kg, po qd for 21 days measured 1 hr after last administered dose on day 21 by electrochemiluminescence assay; type: functional
[10] = Half life in nu/nu mouse at 5 mg/kg, po; type: ADME, organism-based; set-up: dose 5 mg/kg, route oral; settings: in vivo
[11] = Antiproliferative activity against human MCF7.1 cells expressing PI3Kalpha mutant after 3 to 4 days; type: functional, cell-based
[12] = Antitumor activity against human MCF7.1 cells expressing PI3Kalpha mutant xenografted in nu/nu mouse assessed as inhibition of tumor growth at 50 mg/kg, po qd for 21 days; type: functional; settings: MCF7.1, 504 h, read-out: TGI
Mus musculus [13] = assay: Inhibition of PI3K/Akt/mTOR pathway signaling in PI3Kalpha mutant expressing human MCF7.1 cells xenografted nu/nu mouse assessed as inhibition of S6RP Ser235/236 phosphorylation at 6.25 mg/kg, po qd for 21 days measured 1 hr after last administered dose on day 21 by electrochemiluminescence assay; type: functional
Mus musculus [14] = assay: Toxicity in human MCF7.1 cells expressing PI3Kalpha mutant xenografted nu/nu mouse assessed as body weight loss at 6.25 mg/kg, po qd for 21 days; type: organism-based; set-up: dose 6.25 mg/kg, route oral; settings: in vivo, 504 h
Mus musculus [15] = assay: Inhibition of PI3K/Akt/mTOR pathway signaling in PI3Kalpha mutant expressing human MCF7.1 cells xenografted nu/nu mouse assessed as inhibition of Akt Ser473 phosphorylation at 12.5 mg/kg, po qd for 21 days measured 4 hrs after last administered dose on day 21 by electrochemiluminescence assay; type: functional
[16] = target: Phosphatidylinositol 4-phosphate 3-kinase C2 domain-containing subunit alpha (Homo sapiens) (UniProt O00443); assay: Inhibition of PIK3C2alpha at 1 uM
Mus musculus [17] = assay: Inhibition of PI3K/Akt/mTOR pathway signaling in PI3Kalpha mutant expressing human MCF7.1 cells xenografted nu/nu mouse assessed as inhibition of Akt Ser473 phosphorylation at 6.25 mg/kg, po qd for 21 days measured 1 hr after last administered dose on day 21 by electrochemiluminescence assay; type: functional
Mus musculus [18] = assay: Toxicity in human MCF7.1 cells expressing PI3Kalpha mutant xenografted nu/nu mouse assessed as body weight loss at 25 mg/kg, po qd for 21 days; type: organism-based; set-up: dose 25 mg/kg, route oral; settings: in vivo, 504 h
Mus musculus [19] = assay: Inhibition of PI3K/Akt/mTOR pathway signaling in PI3Kalpha mutant expressing human MCF7.1 cells xenografted nu/nu mouse assessed as inhibition of S6RP Ser235/236 phosphorylation at 12.5 mg/kg, po qd for 21 days measured 4 hrs after last administered dose on day 21 by electrochemiluminescence assay; type: functional
Mus musculus [20] = assay: Inhibition of PI3K/Akt/mTOR pathway signaling in PI3Kalpha mutant expressing human MCF7.1 cells xenografted nu/nu mouse assessed as inhibition of S6RP Ser235/236 phosphorylation at 6.25 mg/kg, po qd for 21 days measured 4 hrs after last administered dose on day 21 by electrochemiluminescence assay; type: functional

Chain of Mitogen-activated protein kinase kinase kinase 9 (P80192 whole entry): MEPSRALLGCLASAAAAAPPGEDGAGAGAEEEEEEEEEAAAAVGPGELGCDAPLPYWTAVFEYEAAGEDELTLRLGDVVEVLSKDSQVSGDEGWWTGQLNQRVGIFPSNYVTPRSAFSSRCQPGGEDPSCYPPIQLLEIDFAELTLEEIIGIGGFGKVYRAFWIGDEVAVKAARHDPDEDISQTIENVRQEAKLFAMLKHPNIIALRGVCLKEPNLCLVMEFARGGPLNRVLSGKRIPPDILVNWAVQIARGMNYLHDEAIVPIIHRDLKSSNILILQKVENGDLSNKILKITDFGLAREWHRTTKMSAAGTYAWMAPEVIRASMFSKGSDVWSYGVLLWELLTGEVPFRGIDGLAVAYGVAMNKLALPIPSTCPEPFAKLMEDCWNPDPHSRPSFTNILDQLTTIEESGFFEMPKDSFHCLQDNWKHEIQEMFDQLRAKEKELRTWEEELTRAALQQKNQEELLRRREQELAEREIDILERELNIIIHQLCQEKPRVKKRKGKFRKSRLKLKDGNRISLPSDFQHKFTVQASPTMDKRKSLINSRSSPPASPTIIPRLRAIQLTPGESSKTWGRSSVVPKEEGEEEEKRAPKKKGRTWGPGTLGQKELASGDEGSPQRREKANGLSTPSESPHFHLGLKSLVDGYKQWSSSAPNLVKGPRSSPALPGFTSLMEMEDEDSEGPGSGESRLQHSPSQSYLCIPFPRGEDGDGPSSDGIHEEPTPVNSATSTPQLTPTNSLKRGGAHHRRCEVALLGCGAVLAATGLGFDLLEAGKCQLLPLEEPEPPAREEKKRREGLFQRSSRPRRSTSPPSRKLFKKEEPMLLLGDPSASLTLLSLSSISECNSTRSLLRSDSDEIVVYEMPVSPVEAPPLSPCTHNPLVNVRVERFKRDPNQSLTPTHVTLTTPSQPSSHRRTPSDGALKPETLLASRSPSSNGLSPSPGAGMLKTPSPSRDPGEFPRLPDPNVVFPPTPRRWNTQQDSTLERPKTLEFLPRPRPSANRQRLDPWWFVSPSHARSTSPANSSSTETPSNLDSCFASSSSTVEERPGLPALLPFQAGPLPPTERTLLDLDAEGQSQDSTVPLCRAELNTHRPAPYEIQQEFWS
Chain of Phosphatidylinositol 4-phosphate 3-kinase C2 domain-containing subunit alpha (Homo sapiens) (O00443 whole entry, the tested form may be a part): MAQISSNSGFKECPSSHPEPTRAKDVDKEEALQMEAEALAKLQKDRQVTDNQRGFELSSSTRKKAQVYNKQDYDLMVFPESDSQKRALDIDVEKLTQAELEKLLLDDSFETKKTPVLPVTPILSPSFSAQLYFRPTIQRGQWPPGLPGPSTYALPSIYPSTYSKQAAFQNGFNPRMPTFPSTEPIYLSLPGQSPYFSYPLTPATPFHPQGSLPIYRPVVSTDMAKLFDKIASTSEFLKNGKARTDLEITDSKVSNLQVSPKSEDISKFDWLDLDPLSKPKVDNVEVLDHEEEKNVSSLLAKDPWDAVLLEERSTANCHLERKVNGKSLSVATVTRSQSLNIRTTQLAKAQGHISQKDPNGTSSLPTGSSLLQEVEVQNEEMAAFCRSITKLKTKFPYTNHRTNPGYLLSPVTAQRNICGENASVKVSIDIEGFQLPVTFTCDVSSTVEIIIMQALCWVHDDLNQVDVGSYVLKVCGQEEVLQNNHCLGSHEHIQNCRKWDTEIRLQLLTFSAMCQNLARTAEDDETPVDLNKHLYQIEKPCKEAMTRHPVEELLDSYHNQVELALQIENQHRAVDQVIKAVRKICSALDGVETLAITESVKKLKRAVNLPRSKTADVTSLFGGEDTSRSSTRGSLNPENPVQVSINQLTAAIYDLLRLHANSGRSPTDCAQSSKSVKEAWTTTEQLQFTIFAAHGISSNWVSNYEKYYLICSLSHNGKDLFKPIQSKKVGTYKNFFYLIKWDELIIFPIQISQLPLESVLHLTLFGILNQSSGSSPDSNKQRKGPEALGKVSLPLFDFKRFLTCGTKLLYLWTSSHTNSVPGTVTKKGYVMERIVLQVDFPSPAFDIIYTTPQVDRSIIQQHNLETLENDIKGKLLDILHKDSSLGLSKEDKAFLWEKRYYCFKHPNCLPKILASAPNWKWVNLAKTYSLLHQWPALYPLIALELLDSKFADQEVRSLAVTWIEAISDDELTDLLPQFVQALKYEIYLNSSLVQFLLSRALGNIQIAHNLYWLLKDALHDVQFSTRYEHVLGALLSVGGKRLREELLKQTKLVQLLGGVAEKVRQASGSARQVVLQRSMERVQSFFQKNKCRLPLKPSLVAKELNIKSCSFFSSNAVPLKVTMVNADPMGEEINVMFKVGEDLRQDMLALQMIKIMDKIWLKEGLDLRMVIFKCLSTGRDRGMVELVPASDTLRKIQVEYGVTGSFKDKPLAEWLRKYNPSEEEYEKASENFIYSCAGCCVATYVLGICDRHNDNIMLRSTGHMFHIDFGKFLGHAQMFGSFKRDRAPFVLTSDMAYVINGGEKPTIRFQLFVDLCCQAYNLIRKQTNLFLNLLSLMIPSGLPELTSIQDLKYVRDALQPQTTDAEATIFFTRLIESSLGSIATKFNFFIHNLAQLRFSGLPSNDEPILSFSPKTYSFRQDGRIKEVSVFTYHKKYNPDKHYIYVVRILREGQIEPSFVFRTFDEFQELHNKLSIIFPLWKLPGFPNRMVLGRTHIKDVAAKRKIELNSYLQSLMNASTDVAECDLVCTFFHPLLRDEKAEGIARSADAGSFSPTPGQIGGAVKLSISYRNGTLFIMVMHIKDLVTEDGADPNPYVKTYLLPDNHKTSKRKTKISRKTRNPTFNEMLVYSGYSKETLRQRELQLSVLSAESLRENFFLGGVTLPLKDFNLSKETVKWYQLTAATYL
Chain of Phosphatidylinositol 4-phosphate 3-kinase C2 domain-containing subunit beta (Homo sapiens) (O00750 whole entry, the tested form may be a part): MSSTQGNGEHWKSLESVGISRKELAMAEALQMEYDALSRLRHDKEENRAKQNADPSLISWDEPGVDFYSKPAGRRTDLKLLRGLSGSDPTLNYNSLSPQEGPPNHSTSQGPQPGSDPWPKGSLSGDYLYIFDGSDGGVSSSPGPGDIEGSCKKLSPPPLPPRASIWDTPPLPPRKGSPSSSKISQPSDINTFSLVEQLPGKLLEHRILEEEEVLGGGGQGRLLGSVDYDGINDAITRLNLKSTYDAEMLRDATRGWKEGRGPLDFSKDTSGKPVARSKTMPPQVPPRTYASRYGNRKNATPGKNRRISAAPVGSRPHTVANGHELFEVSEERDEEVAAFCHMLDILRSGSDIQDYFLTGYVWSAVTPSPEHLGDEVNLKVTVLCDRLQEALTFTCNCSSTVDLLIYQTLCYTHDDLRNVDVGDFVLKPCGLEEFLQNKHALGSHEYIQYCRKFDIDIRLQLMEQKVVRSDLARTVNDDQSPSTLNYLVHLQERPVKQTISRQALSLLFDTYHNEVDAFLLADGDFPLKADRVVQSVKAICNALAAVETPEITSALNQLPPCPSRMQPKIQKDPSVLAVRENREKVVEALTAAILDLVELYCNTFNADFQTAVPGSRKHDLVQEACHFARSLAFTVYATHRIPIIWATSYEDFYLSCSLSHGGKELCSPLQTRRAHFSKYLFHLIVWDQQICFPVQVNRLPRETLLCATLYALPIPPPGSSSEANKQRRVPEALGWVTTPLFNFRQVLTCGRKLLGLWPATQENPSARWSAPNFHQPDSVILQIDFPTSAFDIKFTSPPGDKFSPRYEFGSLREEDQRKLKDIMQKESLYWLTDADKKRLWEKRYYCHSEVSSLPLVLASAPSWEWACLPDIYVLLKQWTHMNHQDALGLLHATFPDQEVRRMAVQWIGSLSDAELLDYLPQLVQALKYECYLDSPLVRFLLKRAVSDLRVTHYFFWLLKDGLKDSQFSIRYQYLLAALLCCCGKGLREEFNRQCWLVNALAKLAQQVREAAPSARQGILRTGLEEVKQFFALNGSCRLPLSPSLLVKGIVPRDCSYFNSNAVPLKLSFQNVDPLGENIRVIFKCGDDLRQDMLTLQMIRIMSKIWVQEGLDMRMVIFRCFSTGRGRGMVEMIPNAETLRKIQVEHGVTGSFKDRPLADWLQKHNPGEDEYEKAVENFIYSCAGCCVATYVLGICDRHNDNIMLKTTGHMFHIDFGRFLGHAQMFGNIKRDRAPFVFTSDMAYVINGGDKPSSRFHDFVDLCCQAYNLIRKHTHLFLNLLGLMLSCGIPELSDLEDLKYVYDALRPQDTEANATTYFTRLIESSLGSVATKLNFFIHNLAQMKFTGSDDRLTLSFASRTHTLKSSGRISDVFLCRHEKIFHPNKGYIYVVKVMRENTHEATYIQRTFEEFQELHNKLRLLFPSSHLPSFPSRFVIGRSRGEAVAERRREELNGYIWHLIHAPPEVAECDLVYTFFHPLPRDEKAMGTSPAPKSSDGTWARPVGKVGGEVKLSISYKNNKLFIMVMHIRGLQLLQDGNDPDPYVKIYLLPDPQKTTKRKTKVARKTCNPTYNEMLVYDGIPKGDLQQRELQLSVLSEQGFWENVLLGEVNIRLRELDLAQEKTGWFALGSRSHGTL

fraction unbound [1]: 0.27
pIC50 (Aurora kinase A): < 6.00
AUC [4]: 4.8 µM·h
inhibition [5]: 81%
pIC50 [6]: < 6.00
inhibition [7]: inactive
half-life [10]: 4.6 h
inhibition [16]: inactive
Structure (SMILES): Cc1nc(N)ncc1-c1nc(N2CCOCC2)c2sc(C(C)(C)O)cc2n1
inhibition in vivo at 6.25 mg/kg (Mus musculus [2]): 98%
inhibition in vivo at 12.5 mg/kg (Mus musculus [3]): 83%
inhibition in vivo at 25 mg/kg (Mus musculus [8]): 97%
Activity (MCF7.1): Active
inhibition in vivo at 12.5 mg/kg (Mus musculus [9]): 77%
pIC50 [11]: 6.55
inhibition in vivo at 50 mg/kg [12]: 88%
inhibition in vivo at 6.25 mg/kg (Mus musculus [13]): 70%
Activity (Mus musculus [14]): Non-toxic
inhibition in vivo at 12.5 mg/kg (Mus musculus [15]): 48%
inhibition in vivo at 6.25 mg/kg (Mus musculus [17]): 81%
Activity (Mus musculus [18]): Non-toxic
inhibition in vivo at 12.5 mg/kg (Mus musculus [19]): 50%
inhibition in vivo at 6.25 mg/kg (Mus musculus [20]): 51%
